From patent US7875607B2, “7,8-bicycloakyl-chroman derivatives” (Ampere Life Sciences, Inc., priority 2004, dated 2011) come the findings set out here.

Experiment [1] concerns MPTP treated C57/BL6 mice. The experiment can be described thus: MPTP animal model, pole test. The note with it: for effect on the functional deficit produced by MPTP: 30 mg/kg/day, each of days 1-3. It is filed as in vivo, mouse. How it is done:
MPTP/MPP^+-induced neurodegeneration of dopaminergic neurons is a well characterized model which is therefore widely used to understand the pathogenesis of Parkinson's disease. The compounds were tested against MPTP/MPP^+ induced neuronal death in vitro and in vivo as shown in the following examples. In vitro evaluation of protection against mitochondrial dysfunction is carried out using substantia nigra-derived dopaminergic progenitor cell line (as described in Son J H, et al J W. (1999) J Neurosci, 19:10-20), exposed to 1-methyl-4-phenylpyridinium (MPP^+). In vivo evaluation was carried out using mice that had been treated with 1-methyl-4-phenyl-1,2,3,6-tetrahydropyridine (MPTP), a neurotoxin. […] In a number of species, including humans, […] and rodents, MPTP produces an irreversible and severe parkinsonian syndrome which includes virtually all the clinical features of the disease.
Male C57/BL6 mice (Harlan, Ind.), weight 25-30 g, were used in all studies. MPTP-HCl (Sigma) was administered i.p. according to one of the following protocols. The maximum volume which was given per injection is 200 μL. In all studies, animals were euthanized with carbon dioxide and, brains removed for subsequent determination of dopamine depletion where appropriate.
The pole test evaluates motor co-ordination.
A rough surfaced metal pole (diameter 8 mm, height 50 cm) protruding from a cage filled with animal bedding was used for this test. Animals were placed head upwards at the top of the pole. They were required to turn and descend face downwards and the time taken for this was recorded (latency to reach bedding). Timing was started when the individual animal gripped the top of the pole and was stopped when all four limbs contacted the bedding.
All test compounds were administered ip. The maximum volume which was given per injection was 200 μL. Compounds were dosed up to twice daily, two days prior and 7 days post MPTP treatment.
A baseline reading was taken for each animal one day prior to MPTP treatment. All subsequent readings were normalized to the individual animal's baseline. Values were expressed as a percent baseline.
Data is percent baseline and expressed as mean±std dev: […]
Compound and vehicle given for 9 days in total, 2 days prior to MPTP and 7 days after MPTP treatment. L-DOPA given 1 hour prior to the pole test each day.

In experiment [2] the target is T1, human recombinant 5-lipoxygenase (Homo sapiens, UniProt P09917).
T1 construct: purchased Cayman 60402
T1 sequence (P09917 1-674): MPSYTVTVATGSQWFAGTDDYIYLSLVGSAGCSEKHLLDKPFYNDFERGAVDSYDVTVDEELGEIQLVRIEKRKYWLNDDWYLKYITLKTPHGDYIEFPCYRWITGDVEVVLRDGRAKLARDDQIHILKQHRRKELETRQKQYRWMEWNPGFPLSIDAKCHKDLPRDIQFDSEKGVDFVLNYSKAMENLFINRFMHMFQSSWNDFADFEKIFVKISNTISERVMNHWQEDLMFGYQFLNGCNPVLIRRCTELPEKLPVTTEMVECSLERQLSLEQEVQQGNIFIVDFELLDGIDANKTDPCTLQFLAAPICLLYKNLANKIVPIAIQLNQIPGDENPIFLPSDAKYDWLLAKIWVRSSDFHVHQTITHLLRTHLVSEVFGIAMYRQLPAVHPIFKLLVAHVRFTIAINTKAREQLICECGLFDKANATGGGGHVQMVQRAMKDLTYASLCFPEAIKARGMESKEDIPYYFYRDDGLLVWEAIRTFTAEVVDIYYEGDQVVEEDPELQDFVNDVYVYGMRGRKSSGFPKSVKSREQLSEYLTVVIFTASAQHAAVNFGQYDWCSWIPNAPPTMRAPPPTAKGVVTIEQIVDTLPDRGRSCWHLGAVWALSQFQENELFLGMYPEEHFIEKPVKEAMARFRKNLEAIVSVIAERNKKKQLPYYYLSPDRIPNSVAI
The experiment can be described thus: 5-Lipoxygenase enzyme assay. To be noted: 70 μM arachidonic acid, pH 7.4. It is filed as biochemical. In a few lines: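 Human recombinant 5-LO (0.5 U) with compound in 50 mM Tris-HCl pH 7.4 reacted with 70 μM arachidonic acid for 10 min at room temperature. Hydroperoxide formation was read via FOX xylenol orange complex at 620 nm after 1 h; compounds at 5 concentrations from 10 μM, in triplicate.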

In experiment [3] the test system is IL-1beta production in mouse microglial cell line. Put plainly: Interleukin-1β microglial cell assay. It is filed as cell-based. The note with it: LPS 10 μg/ml and IFN gamma 10 ng/ml, 24 hours, read-out: EC50, inhibition of IL-1beta production. The procedure:
This assay measures the release of IL-1β from a mouse microglial cell line following an inflammatory challenge with LPS and interferon-gamma. The ability of test articles to inhibit microglial cell activation and IL-1β release is determined by co-incubation of the test article with the inflammatory challenge.
Mouse microglial cells were seeded in poly-D-lysine coated 96-well plates at a density of 10,000 cells/well and allowed to attach for 24 hours. Cells were stimulated by addition of LPS (10 μg/ml) and IFN gamma (10 ng/ml) in the presence or absence of test article. The cells were then incubated for 24 hours at 37° C., after which time the media was removed and used for cytokine determination as described below.
Viability of mouse microglial cells after exposure to the test article was determined using a fluorescent viability dye, Cell Tracker Green. Cell Tracker Green was used at a working concentration of 5 μM in 1×HBSS. Cells were washed once with HBSS (200 μl/well) and 100 μl Cell Tracker Green was added to each well. Cells were then incubated at 37° C. for 30 minutes, after which time the Cell Tracker was removed and the cells were washed once with HBSS (200 μl/well). 100 μl fresh HBSS was added to each well and the plate was read on a Fluoroskan plate reader using an excitation wavelength of 485 nm and an emission wavelength of 538 nm.
Solutions: • Wash Buffer: PBS 1 L+500 μl Tween 20 (final 0.05%) pH 7.2-7.4. • Blocking Buffer: 500 ml PBS+5 g BSA V (1%)+25 g Sucrose (5%)+0.25 g Sodium Azide (0.05%). • Reagent Diluent: 500 ml PBS+5 g BSA V (1%) pH 7.2-7.4 and filter sterilize through 0.2 μm. • Stop Solution: 2N sulfuric acid.
Duo Set Preparations: • 1. The IL-1β capture antibody was reconstituted in 1 ml of PBS to give a final concentration of 720 μg/ml, and the working concentration was 4 μg/ml. For coating one 96-well plate (at 100 μl/well) 56 μl of the 720 μg/ml stock was diluted into 10 ml of PBS. • 2. The IL-1β standards were reconstituted in 0.5 ml of Reagent Diluent (70 ng/ml). For a high standard of 1 ng/ml (2 wells at 100 μl each+enough for series dilution) 7.1 μl of the 70 ng/ml standard were diluted into 0.5 ml of Reagent Diluent • 3. The IL-1β detection antibody was reconstituted in 1 ml of Reagent Diluent to give a final concentration of 18 μg/ml and the working concentration is 100 ng/ml. For one 96-well plate (at 100 μl/well) 56 μl of the 18 μg/ml stock was diluted into 10 ml of Reagent Diluent.
• The Costar EIA Hi-binding plate was coated with capture antibody at 4 μg/ml. Each well was coated with 100 μl, and the plate was sealed and incubated overnight at room temperature. • Each well was aspirated and washed 3× with Wash Buffer. Each well was filled to the top, dispensed, and any remaining buffer was removed by inverting the plate and gently blotting against clean paper towels. • Non-specific binding sites were blocked by adding 300 μl of Blocking Buffer to each well, and after sealing incubating for at least 1 hour at room temperature. • After washing the plate was now ready for the samples. Assay Procedure: • 100 μl of either standard or sample were added in each well of the capture-coated and pre-blocked plate. The plate was sealed and incubated for 2 hours at room temperature, followed with washing. • 100 μl of the detection antibody (10 ng/ml) were added to each well. […]

Experiment [4] concerns dopaminergic neuronal cell line. Put plainly: High glutamate-induced oxidative stress assay (HGOS). It is filed as cell-based. To be noted: Mus musculus; 30 mM glutamate, 16 hrs; read-out: EC50, protection against HGOS cell injury and cell death. The method, boiled down: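 Mouse dopaminergic cells (passage ≤ p11) were grown 72 h at 33 °C, washed in HBSS, then exposed 16 h at 37 °C to compounds in DMEM-No Glu with 1 mM glucose and 30 mM glutamate. Surviving cells were stained 30 min with 5 μM Cell Tracker Green and fluorescence read at 485/538 nm.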

[5] abbreviates: L-DOPA given 1 hour prior to the pole test, mean±std dev.

For the compound `COC(=O)CCC1(C)CCc2cc(O)c3c(c2O1)C1CCC3C1` (stereo not shown) [3-(6-Hydroxy-2-methyl-3,4,7,8,9,10-hexahydro-7,10-methano-2H-benzo[h]chromen-2-yl)-propionic Acid Methyl Ester], the “effect on the functional deficit produced by MPTP” value in experiment [1] was “significantly reduced the functional deficit produced by MPTP”. Also, the IC50 (commonly the midpoint of a concentration-inhibition curve) in experiment [2] is at most 5 µM.

Regarding `CC1(CCC(=O)O)CCc2cc(O)c3c(c2O1)C1CCC3C1` (stereo not shown) [3-(6-Hydroxy-2-methyl-3,4,7,8,9,10-hexahydro-7,10-methano-2H-benzo[h]chromen-2-yl)-propionic Acid], the “effect on the functional deficit produced by MPTP” value in experiment [1] was “significantly reduced the functional deficit produced by MPTP”.

As for `CC1(CCC(=O)O)CCc2cc(O)c3c(c2O1)C1CCCC3CC1` (stereo not shown) [3-(6-Hydroxy-2-methyl-3,4,7,8,9,10-hexahydro-7,10-propano-2H-benzo[h]chromen-2-yl)-propionic Acid], the concentration for a half-maximal effect (EC50) (commonly the concentration giving half of the maximal effect) in experiment [3] is at most 20 µM.

`CC(C)=CCc1c(O)c2c(c3c1CCC(C)(CCC(=O)O)O3)C1CCC2C1` (stereo not shown) [3-[6-hydroxy-2-methyl-5-(3-methyl-but-2-enyl)-3,4,7,8,9,10-hexahydro-7,10-methano-2H-benzo[h]chromen-2-yl]-propionic acid]: in experiment [3], the EC50 was at most 20 µM.

Take `CC(=O)Oc1c(CC=C(C)C)c2c(c3c1C1CCC3C1)OC(C)(C)CC2` (stereo not shown) [Acetic acid 2,2-dimethyl-5-(3-methyl-but-2-enyl)-3,4,7,8,9,10-hexahydro-7,10-methano-2H-benzo[h]chromen-6-yl ester]: the concentration giving a half-maximal response (EC50) is at most 1 µM in experiment [4] and at most 20 µM in experiment [3].

`N[C@@H](Cc1ccc(O)c(O)c1)C(=O)O` [L-DOPA]: in experiment [1] (setting [5]), the “pole test, percent baseline, Day 1” value stood at 110 ± 13.2 percent baseline; the “pole test, percent baseline, Day 2” value was determined as 97.9 ± 20.0 percent baseline; the “pole test, percent baseline, Day 3” value is 100.1 ± 14.8 percent baseline.
